In ChEMBL document CHEMBL1150155, “Purealidin S and purpuramine J, bromotyrosine alkaloids from the Fijian marine sponge Druinella sp” (2002):
≈ marks a conversion by molar mass, not a printed value.

Key:
A2780 = assay: Cytotoxicity against human A2780 cells; type: functional; conditions: read-out: ID50 (the source's name)
K562 = assay: Cytotoxicity against human K562 cells; type: functional; conditions: read-out: ID50 (the source's name)

| SMILES | IC50 (A2780) [µg/mL] | IC50 (K562) [µg/mL] |
| --- | --- | --- |
| CNCCCOc1c(Br)cc(CCNC(=O)C2=NO[C@]3(C=C(Br)C(OC)=C(Br)[C@@H]3O)C2)cc1Br | 7.44 (≈ 10.2 µM) | 6.02 (≈ 8.23 µM) |
| COC1=C(Br)[C@@H](O)[C@]2(C=C1Br)CC(C(=O)NCCc1cnc[nH]1)=NO2 [AEROPHOBIN 1] | 21.5 (≈ 45.2 µM) | 24.1 (≈ 50.6 µM) |
| COC1=C(Br)[C@H](O)[C@@]2(C=C1Br)CC(C(=O)NCCCc1cnc(N)[nH]1)=NO2 [AEROPHOBIN 2] | > 10 | 6.91 (≈ 13.7 µM) |
| COc1ccc(C/C(=N/O)C(=O)NCCc2cc(Br)c(OCCCN(C)C)c(Br)c2)cc1Br [APLYSAMINE 2] | 2.83 (≈ 4.35 µM) | 1.37 (≈ 2.11 µM) |
| COC1=C(Br)[C@@H](O)[C@]2(C=C1Br)CC(C(=O)NCCCOc1c(Br)cc(CCN)cc1Br)=NO2 [ARAPLYSILLIN 1] | 18.6 (≈ 25.9 µM) | 27.9 (≈ 39 µM) |
| COC1=C(Br)[C@H](O)[C@@]2(C=C1Br)CC(C(=O)NCCCOc1c(Br)cc(CCNC(=O)CCCCCCCCCCCC(C)C)cc1Br)=NO2 [ARAPLYSILLIN 2] | 14.8 (≈ 15.7 µM) | 42.7 (≈ 45.4 µM) |
| COC1=C(Br)[C@@H](O)[C@]2(C=C1Br)CC(C(=O)NCCc1cnc(N)[nH]1)=NO2 [PUREALIDIN J] | > 10 | > 10 |
| CNCCCOc1c(Br)cc(CCNC(=O)/C(Cc2ccc(OC)c(Br)c2)=N/O)cc1Br [PURPUREAMINE I] | 1.7 (≈ 2.67 µM) | 1.24 (≈ 1.95 µM) |
| COc1ccc(C/C(=N\O)C(=O)NCCc2cc(Br)c(OCCC[N+](C)(C)[O-])c(Br)c2)cc1Br [PURPUREAMINE J] | 6.77 (≈ 10.2 µM) | 5.97 (≈ 8.96 µM) |
